Measurements published in patent publication US20230151386A1, “Apparatus for Improved Transfection Efficiency and / or Protein Expression and Method of Use Thereof” (St Andrews Pharmaceutical Technology Ltd., priority 2020, published 2023).

System: p53alpha
Test: Western blot of p53 isoforms in HCT 116 cells after doxorubicin with or without pulsed technology
Type: cell-based, Human
Settings: 0.25 μM for 1 hour
Procedure: Human Colon Tumour (HCT) 116 cells (adherent cells) (ATCC, USA-ATCC® CCL-247™) were seeded at a density of 3×10^5 cells per well in two CELLSTAR®6-well plates (9.6 cm^2) in a final volume of 5 mL Dulbeccos Modified Eagle Medium (DMEM) (Thermo Fisher, USA)+10% Fetal Bovine Serum (FBS) (Hyclone, USA) 24 hours before treatment.
The naked agent used was Doxorubicin (0.25 μM) (Sigma Aldrich) in absolute ethanol and was given to the cells for a 1 hour treatment period and incubated at 37° C., at 5% CO^2.
After treatment the media was removed and fresh media was added to the cells. One of the plates was incubated directly at 37° C., at 5% CO^2 and the second plate was placed in a different incubator and pulsed using the pulsed technology of the present invention at 37° C., at 5% CO^2.
Protein extracts were collected at 3 hours, 6 hours, 9 hours, 16 hours or 24 hours of treatment for analysis by SDS-page.
1. For protein extraction the cells were washed twice with ice-cold PBS and then lysed in NP-40 extraction buffer (50 mM Tris ph 7.5; 10% glycerol; 0.1% “NP-40 Alternative” (Merck Millipore, USA); 100 mM NaCl; 0.2 mM EDTA) supplemented with 1× Complete™ Protease Inhibitor Cocktail (Roche, Switzerland). Extracts were sonicated (20 seconds, 20% amplitude) and protein concentration was determined using BCA™ Protein Assay Kit (ThermoFisher Scientific USA) according to the manufacturers recommendations.
1. Protein extracts (15/20 μg depending on the experiment) were supplemented with 0.1M dithiothreitol (DTT) and 1×LDS buffer (Invitrogen, USA) and were heated at 95° C. for 10 min before loading on NuPAGE 10% Bis-Tris polyacrylamide gels (Invitrogen, USA).
2. Protein samples were separated by electrophoresis (100V) using 1×MOPS Running Buffer. Transfer of proteins was performed at 12V overnight onto a nitrocellulose membrane (Protran 0.1 μm from GE Healthcare, USA) in 1× Transfer Buffer supplemented with 20% methanol. 1× Transfer Buffer is prepared from 10× Wet blot solution containing 144 g of glycine and 30 g Tris-Base in a final volume of 1 L milli-Q water.
3. Membranes were blocked for 30 min in 5% BSA diluted in PBS—0.1% Tween20 before being incubated overnight with a primary antibody (Mouse monoclonal antibody D01). After a wash of 15 min. in PBS-Tween20, membranes were incubated for 1 h with a corresponding secondary antibody (HRP conjugated Donkey anti Mouse). […]
At the end of the incubation membranes were washed twice with PBS-Tween20 for 15 min followed by a final 10 min. wash with PBS. The chemiluminescence signal was detected on Hyperfilm™ ECL (Cytiva, USA) using the Amersham ECL Western Blotting Detection System (Cytiva, USA).

## COc1cccc2c1C(=O)c1c(O)c3c(c(O)c1C2=O)C[C@@](O)(C(=O)CO)C[C@@H]3O[C@H]1C[C@H](N)[C@H](O)[C@H](C)O1 [doxorubicin, Doxorubicin]
Pulsed technology vs control arms, FIG. 13
  H2AX expression (ionising radiation marker, Western Blot): no observed change
Pulsed technology vs control, after 16 hours, FIG. 14
  p53alpha expression (Western Blot): significant overproduction
Then pulsed technology vs control, 3 to 24 hours, FIG. 13
  p53alpha expression (Western Blot): upregulated
Then pulsed technology vs control, FIG. 13
  expression of other p53 isoforms d133p53alpha, d133p53beta and d160p53beta (Western Blot): more upregulated
